We go through eight compounds from patent US9809623B2, “α4β7 peptide monomer and dimer antagonists” (Protagonist Therapeutics, Inc., priority 2014, dated 2017).

Read-outs that look alike come from different tables or passages of the source. Numbered stars: 1 amine (or outer) side, 2 acyl side, 3 side chain; on linkers, the order of the positions; unused ones are H or OH. Bridge positions count the residues as written; N and C are the ends. Square brackets hold non-standard residues; d marks the D form. Peptide text beside a SMILES is read from it. I, II: the chains in the order shown. Phe(4-tBu) = CC(C)(C)c1ccc(C[C@H](N)C(=O)O)cc1; X3 = O=C(COCC(=O)NCCC(=O)[*:2])NCCC(=O)[*:1]; 2Nal = N[C@@H](Cc1ccc2ccccc2c1)C(=O)O; Diglycolyl = O=C(COCC(=O)[*:2])[*:1]; NMeR = CN[C@@H](CCCNC(=N)N)C(=O)O; hPhe = N[C@@H](CCc1ccccc1)C(=O)O; Aic = NC1(C(=O)O)Cc2ccccc2C1; Pen = CC(C)(S)[C@H](N)C(=O)O; βAla = NCCC(=O)O

The target in one data set is T1, α4β1 (Homo sapiens, UniProt P05556+P13612, DEL729-798).
T1 construct: purchased R&D Systems 5668-A4
T1 sequence (P13612 34-977 limits assumed, stated change not applied): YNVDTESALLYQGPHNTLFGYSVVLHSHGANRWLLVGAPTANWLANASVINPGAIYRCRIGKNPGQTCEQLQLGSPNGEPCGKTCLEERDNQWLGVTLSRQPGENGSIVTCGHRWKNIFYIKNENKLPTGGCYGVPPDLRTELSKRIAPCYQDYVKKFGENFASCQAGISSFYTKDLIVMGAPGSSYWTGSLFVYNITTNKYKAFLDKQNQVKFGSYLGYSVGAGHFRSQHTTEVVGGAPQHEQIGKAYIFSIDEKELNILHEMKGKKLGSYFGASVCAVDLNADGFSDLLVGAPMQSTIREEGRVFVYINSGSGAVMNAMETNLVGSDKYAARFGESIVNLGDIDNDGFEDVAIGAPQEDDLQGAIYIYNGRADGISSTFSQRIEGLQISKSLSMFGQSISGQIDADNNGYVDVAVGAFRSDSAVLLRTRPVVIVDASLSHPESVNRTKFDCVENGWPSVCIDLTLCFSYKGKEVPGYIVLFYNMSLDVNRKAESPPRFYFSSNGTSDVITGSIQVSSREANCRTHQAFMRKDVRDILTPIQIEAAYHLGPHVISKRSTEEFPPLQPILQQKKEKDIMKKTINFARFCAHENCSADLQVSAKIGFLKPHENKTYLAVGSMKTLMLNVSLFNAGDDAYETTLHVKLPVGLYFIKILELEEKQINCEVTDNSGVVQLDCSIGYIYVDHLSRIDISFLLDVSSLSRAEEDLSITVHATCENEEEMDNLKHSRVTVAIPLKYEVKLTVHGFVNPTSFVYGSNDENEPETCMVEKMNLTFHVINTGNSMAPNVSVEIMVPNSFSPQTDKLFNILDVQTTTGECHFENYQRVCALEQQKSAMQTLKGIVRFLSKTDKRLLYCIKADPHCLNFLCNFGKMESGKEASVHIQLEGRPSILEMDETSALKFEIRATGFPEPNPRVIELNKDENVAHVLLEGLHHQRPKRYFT
T1 sequence (P05556 21-728 limits assumed, stated change not applied): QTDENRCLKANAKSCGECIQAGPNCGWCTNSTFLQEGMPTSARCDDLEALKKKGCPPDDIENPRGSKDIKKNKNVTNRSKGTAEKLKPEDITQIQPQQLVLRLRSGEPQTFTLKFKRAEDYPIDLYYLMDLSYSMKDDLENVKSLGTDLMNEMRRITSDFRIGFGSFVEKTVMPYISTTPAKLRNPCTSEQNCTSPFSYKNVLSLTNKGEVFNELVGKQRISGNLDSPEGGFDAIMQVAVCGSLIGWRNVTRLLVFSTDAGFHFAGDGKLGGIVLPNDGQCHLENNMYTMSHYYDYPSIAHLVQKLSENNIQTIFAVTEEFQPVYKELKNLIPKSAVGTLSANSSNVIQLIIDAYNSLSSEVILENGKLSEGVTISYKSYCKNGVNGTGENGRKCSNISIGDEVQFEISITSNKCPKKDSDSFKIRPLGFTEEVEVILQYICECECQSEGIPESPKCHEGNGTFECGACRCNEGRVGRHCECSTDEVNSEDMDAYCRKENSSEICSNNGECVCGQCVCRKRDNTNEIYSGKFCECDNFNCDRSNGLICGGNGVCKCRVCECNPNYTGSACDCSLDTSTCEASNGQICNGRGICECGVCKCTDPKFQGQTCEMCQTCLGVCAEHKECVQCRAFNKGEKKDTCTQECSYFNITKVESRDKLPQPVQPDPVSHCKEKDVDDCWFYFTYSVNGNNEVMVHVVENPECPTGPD
In words: α4β1-VCAM Competition ELISA. The data set is classed as binding. The settings on record: Table 3-B, Selectivity (α4β1); range classes; read-out: α4β1 ELISA IC50. The method, then:
A Nunc MaxiSorp plate was coated with rh VCAM-1/CD106 Fc chimera (R&D #862-VC) at 400 ng/well in 50 ul per well in 1×PBS and incubated overnight at 4° C. The solution was removed by shaking and then blocked with 250 ul of 1% BSA in 1×PBS per well. The wells were then incubated at room temperature for 1 hr with shaking. Each well was then washed once with wash buffer (50 mM Tris-HCl pH7.6, 100 mM NaCL, 1 mM MnCl2 or MgCl2, 0.05% Tween-20). 25 ul of serial dilutions of peptides starting at 200 μM in assay buffer (Assay buffer: 50 mM Tris-HCl pH7.6, 100 mM NaCl, 1 mM MnCl2 or MgCl2, 0.05% Tween-20) was added to each well. Additionally, 25 ul of α4β1 (R&D Systems #5668-A4) was added to each well at a fixed concentration of 120 nM. The final peptide and α4β1 concentrations were 100 μM and 60 nM, respectively. The plates were then incubated at 37° C. for 2 hr. The solution was then removed by shaking, and each well was washed three times with wash buffer. 50 ul of 9F10 antibody at 4 ug/ml (purified mouse anti-human CD49d, BD Bioscience Cat#555502) was then added to each well, and the plate was incubated at room temperature for 1 hr with shaking. The solution was again removed by shaking, and each well was washed three times with wash buffer. 50 ul of peroxidase-conjugated AffiniPure Goat anti-mouse IgG (Jackson immune research cat #115-035-003) diluted in 1:5000 in assay buffer was added to each well. The plate was incubated at room temperature for 30 min with shaking. Each well was then washed 3 times with wash buffer. 100 ul of TMB was then added to each well and closely observe during developing time. The reaction was stepped with 2N H2SO4 and absorbance was read at 450 nm.
A general note: In an ELISA, binding on a coated surface is turned into a signal by an enzyme label.

The nature of data set [1]: Simulated Intestinal Fluid (SIF) Stability Assay. The class given is in vitro ADME, porcine. The settings on record: pig, pH 6.5, Table 3-B, > means experiment was stopped at that time and half life was not reached, read-out: Stabilty SIF t1/2. An outline of the steps: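 Peptides (22 μM final) incubated at 37 °C in FASSIF (pH 6.5) with 1% porcine pancreatin; aliquots quenched at various times and analyzed by LC-MS/MS against internal standard. Half-life from first-order exponential decay fit of percent remaining.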

In a further data set the target is α4β7 (Homo sapiens, UniProt P13612+P26010). The data set is described as follows: α4β7-MAdCAM Cell Adhesion Assay (RPMI 8866 human cells). The class given is cell-based. On the set-up: host or cells: RPMI 8866 human B lymphoblastoid cells. The settings on record: Table 3-B, Potency (α4β7); range classes; read-out: α4β7 cell (Hu) IC50. The essentials:
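Washed RPMI 8866 cells (200,000/well) in DMEM with 0.1% BSA, 10 mM HEPES pH 7, 1 mM MnCl2 adhered to rh MAdCAM-1/Fc-coated wells with serially diluted peptides, 30-45 min at 37 °C. After three washes, bound cells quantified by MTT, A570, cell-free background subtracted for dose response.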

Another data set addresses T2, rh integrin α4β7 (Homo sapiens, UniProt P13612+P26010).
T2 construct: purchased R&D Systems 5397-A30
In words: α4β7-MAdCAM Competition ELISA. The settings on record: Table 3-B, Potency (α4β7); range classes; read-out: α4β7 ELISA IC50. The class given is binding. The method, then:
A nickel coated plate (Pierce #15442) was coated with rh integrin α4β7 (R&D Systems #5397-A30) at 800 ng/well and incubated at room temperature with shaking for 1 hr. The solution was then removed by shaking and blocked with assay buffer (50 mM Tris-HCl pH7.6, 150 mM NaCl, 1 mM MnCl2 or MgCl2, 0.05% Tween-20 and 0.5% BSA) at 250 ul/well. The plate was then incubated at room temperature for 1 hr. Each well was washed 3 times with wash buffer (50 mM Tris-HCl pH7.6, 100 mM NaCl, 1 mM MnCl2 or MgCl2, 0.05% Tween-20). To each well was added 25 ul of a serial dilution (3-fold dilutions in assay buffer) of peptide starting at 20 μM. 25 ul of recombinant human MAdCAM-1 (R&D Systems #6056-MC) was then added to each well at a fixed concentration 20 nM. The final starting peptide concentration was 10 μM, and the final MAdCAM-1 concentration was 10 nM. The plates were then incubated at room temperature for 1 hr to reach binding equilibrium. The wells were then washed three times with wash buffer. 50 ul of mouse anti-human IgG1-HRP (Invitrogen # A10648) diluted in 1:2000 in assay buffer was then added to each well. The wells were incubated at room temperature for 45 min with shaking. The wells were then washed 3 times with wash buffer. 100 ul of 3,3′,5,5′-Tetramethylbenzidine (TMB) were then added to each well and closely observe during development time. The reaction was stopped with 2N H2SO4 and absorbance was read at 450 nm.
TMB is a chromogenic substrate suitable for use in ELISA procedures, which utilize horseradish peroxidase conjugates. This substrate produces a soluble end product that is blue in color and can be read spectrophotometrically at 370 or 655 nm. The reaction maybe stopped with 2 M H2S04, resulting in a yellow solution that is read at 450 nm. Each tablet contains 1 mg of TMB substrate. To prepare TMB Substrate Solution, dissolve one 3,3′,5,5′-tetramethylbenzidine tablet in 1 ml of DMSO and add to 9 ml of 0.05 M Phosphate-Citrate Buffer, pH 5.0. Add 2 μl of fresh 30% hydrogen peroxide (Product No. H 1009) per 10 ml of substrate buffer solution, immediately prior to use.

Setting [2] is: simulated intestinal fluid (SIF) with 1% porcine pancreatin.
Setting [3] is: simulated intestinal fluid (SIF) with porcine pancreatin.

Sequence of α4β7 (P13612 34-1032): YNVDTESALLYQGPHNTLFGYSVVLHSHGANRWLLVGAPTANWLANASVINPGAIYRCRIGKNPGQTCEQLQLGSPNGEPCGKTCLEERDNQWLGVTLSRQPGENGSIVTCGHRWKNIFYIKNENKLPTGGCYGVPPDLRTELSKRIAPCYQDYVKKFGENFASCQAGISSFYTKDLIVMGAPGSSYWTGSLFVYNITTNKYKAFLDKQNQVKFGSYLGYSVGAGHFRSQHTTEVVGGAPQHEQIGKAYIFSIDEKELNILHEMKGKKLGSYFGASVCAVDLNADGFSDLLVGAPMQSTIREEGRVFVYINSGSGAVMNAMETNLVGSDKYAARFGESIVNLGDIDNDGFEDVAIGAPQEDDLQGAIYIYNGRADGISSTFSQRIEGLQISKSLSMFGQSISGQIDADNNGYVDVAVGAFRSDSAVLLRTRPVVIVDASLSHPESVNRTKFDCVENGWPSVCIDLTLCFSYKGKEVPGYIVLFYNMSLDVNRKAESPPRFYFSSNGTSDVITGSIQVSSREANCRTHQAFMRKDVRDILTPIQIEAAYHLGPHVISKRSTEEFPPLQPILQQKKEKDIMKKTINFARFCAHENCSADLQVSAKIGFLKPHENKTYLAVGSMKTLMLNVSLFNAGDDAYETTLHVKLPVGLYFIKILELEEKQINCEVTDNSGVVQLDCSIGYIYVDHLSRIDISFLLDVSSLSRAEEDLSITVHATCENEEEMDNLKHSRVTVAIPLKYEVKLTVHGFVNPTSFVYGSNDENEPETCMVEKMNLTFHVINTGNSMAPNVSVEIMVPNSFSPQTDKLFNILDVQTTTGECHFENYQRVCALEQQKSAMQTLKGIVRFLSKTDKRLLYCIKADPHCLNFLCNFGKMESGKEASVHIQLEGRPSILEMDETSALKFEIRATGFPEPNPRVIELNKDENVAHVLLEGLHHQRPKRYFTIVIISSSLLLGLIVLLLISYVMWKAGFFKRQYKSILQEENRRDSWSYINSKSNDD
Sequence of α4β7 (P26010 20-798): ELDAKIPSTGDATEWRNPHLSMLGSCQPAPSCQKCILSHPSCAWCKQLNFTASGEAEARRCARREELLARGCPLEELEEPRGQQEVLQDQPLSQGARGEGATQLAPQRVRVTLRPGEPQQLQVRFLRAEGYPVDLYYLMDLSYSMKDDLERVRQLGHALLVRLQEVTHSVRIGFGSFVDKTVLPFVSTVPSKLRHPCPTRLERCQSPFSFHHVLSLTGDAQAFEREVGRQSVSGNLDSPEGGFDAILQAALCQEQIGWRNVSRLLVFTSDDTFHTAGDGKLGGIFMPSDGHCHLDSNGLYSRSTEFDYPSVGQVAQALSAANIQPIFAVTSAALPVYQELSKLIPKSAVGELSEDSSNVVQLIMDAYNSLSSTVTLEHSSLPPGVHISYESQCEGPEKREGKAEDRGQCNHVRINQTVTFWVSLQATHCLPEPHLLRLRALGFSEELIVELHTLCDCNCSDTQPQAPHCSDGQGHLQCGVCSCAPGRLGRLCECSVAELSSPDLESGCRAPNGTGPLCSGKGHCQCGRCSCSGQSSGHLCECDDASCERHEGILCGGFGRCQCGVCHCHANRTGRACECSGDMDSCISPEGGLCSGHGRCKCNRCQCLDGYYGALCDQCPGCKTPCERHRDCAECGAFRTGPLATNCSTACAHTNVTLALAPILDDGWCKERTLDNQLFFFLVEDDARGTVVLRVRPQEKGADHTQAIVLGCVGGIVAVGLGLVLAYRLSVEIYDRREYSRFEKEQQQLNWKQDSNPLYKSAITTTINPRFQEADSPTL
T2 sequence (P13612 34-977 limits assumed): as the sequence (P13612 34-977 limits assumed, stated change not applied) above
T2 sequence (P26010 20-723 limits assumed): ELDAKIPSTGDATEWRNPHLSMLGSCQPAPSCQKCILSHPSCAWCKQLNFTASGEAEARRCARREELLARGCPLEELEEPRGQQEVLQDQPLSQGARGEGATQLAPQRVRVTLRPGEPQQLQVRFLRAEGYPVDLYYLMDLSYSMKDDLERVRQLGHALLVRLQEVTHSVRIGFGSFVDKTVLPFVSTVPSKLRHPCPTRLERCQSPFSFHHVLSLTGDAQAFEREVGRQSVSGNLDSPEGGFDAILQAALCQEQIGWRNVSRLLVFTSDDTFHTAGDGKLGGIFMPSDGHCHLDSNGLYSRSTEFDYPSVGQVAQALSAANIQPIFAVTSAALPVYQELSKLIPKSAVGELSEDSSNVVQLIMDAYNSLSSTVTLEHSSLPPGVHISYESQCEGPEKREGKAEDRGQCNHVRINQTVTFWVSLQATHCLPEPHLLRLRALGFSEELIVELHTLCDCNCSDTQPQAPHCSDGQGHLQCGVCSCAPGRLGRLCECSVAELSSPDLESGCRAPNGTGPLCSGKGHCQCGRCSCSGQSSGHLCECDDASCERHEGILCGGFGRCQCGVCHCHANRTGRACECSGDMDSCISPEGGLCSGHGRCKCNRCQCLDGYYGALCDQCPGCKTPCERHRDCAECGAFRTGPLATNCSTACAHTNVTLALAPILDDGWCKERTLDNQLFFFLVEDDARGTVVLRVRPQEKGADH

The term IC50 denotes the concentration that gives 50% inhibition. In the case of `CC(=O)N[C@@H]1C(=O)N(C)[C@@H](CCCNC(=N)N)C(=O)N[C@@H](CO)C(=O)N[C@@H](CC(=O)O)C(=O)N[C@@H]([C@@H](C)O)C(=O)N[C@@H](CC(C)C)C(=O)N[C@H](C(=O)N[C@@H](Cc2ccc3ccccc3c2)C(=O)N[C@@H](Cc2ccc(O)cc2)C(=O)N[C@H](CCCCNC(=O)COCC(=O)NCCCC[C@@H](NC(=O)[C@H](Cc2ccc(O)cc2)NC(=O)[C@H](Cc2ccc3ccccc3c2)NC(=O)[C@H]2NC(=O)[C@H](CC(C)C)NC(=O)[C@H]([C@@H](C)O)NC(=O)[C@H](CC(=O)O)NC(=O)[C@H](CO)NC(=O)[C@H](CCCNC(=N)N)N(C)C(=O)[C@@H](NC(C)=O)C(C)(C)SSC2(C)C)C(N)=O)C(N)=O)C(C)(C)SSC1(C)C` [compound 23] (I: Ac-[Pen][NMeR]SDTL[Pen][2Nal]Y[dK]-NH2 / II: Ac-[Pen][NMeR]SDTL[Pen][2Nal]Y[dK]-NH2; disulfide I:1-I:7, II:1-II:7; linker I:10-II:10 via Diglycolyl), the IC50 on α4β1 is 100 to 500 nM; on α4β7, less than 10 nM. Moreover, the half-life at 22 μM in data set [1] (setting [2]) was less than 0.333 h.
As to `CC(=O)N[C@@H]1C(=O)N(C)[C@@H](CCCNC(=N)N)C(=O)N[C@@H](CO)C(=O)N[C@@H](CC(=O)O)C(=O)N[C@@H]([C@@H](C)O)C(=O)N[C@@H](CC(C)C)C(=O)N[C@H](C(=O)N[C@@H](Cc2ccc3ccccc3c2)C(=O)N[C@H](CCC(=O)O)C(=O)N[C@H](CCCCNC(=O)COCC(=O)NCCCC[C@@H](NC(=O)[C@@H](CCC(=O)O)NC(=O)[C@H](Cc2ccc3ccccc3c2)NC(=O)[C@H]2NC(=O)[C@H](CC(C)C)NC(=O)[C@H]([C@@H](C)O)NC(=O)[C@H](CC(=O)O)NC(=O)[C@H](CO)NC(=O)[C@H](CCCNC(=N)N)N(C)C(=O)[C@@H](NC(C)=O)C(C)(C)SSC2(C)C)C(N)=O)C(N)=O)C(C)(C)SSC1(C)C` [compound 29] (I: Ac-[Pen][NMeR]SDTL[Pen][2Nal][dE][dK]-NH2 / II: Ac-[Pen][NMeR]SDTL[Pen][2Nal][dE][dK]-NH2; disulfide I:1-I:7, II:1-II:7; linker I:10-II:10 via Diglycolyl), the IC50 at rh integrin α4β7 was less than 10 nM; at α4β7, 10 to 25 nM. In addition, in data set [1] (setting [2]), the half-life at 22 μM is more than 3 h.
As for `CC(=O)N[C@@H]1C(=O)N(C)[C@@H](CCCNC(=N)N)C(=O)N[C@@H](CO)C(=O)N[C@@H](CC(=O)O)C(=O)N[C@@H]([C@@H](C)O)C(=O)N[C@@H](CC(C)C)C(=O)N[C@H](C(=O)N[C@@H](Cc2ccc3ccccc3c2)C(=O)N[C@@H](CCc2ccccc2)C(=O)N[C@H](CCCCN)C(N)=O)C(C)(C)SSC1(C)C` [compound 50] (Ac-[Pen][NMeR]SDTL[Pen][2Nal][hPhe][dK]-NH2; disulfide 1-7), the concentration for half-maximal inhibition (IC50) at rh integrin α4β7 was in the range of 10 to 25 nM. Moreover, the half-life at 22 μM in data set [1] (setting [2]) is 1.73 h.
For `CC(=O)N[C@@H]1C(=O)N(C)[C@@H](CCCNC(=N)N)C(=O)N[C@@H](CO)C(=O)N[C@@H](CC(=O)O)C(=O)N[C@@H]([C@@H](C)O)C(=O)N[C@@H](CC(C)C)C(=O)N[C@H](C(=O)N[C@@H](Cc2c[nH]c3ccccc23)C(=O)NC2(C(=O)N[C@H](CCCCN)C(N)=O)Cc3ccccc3C2)C(C)(C)SSC1(C)C` [compound 51] (Ac-[Pen][NMeR]SDTL[Pen]W[Aic][dK]-NH2; disulfide 1-7), in that order: 25 to 50 nM and 3 h.
As for `CC(C)C[C@@H]1NC(=O)[C@H]([C@@H](C)O)NC(=O)[C@H](CC(=O)O)NC(=O)[C@H](CO)NC(=O)[C@H](CCCNC(=N)N)N(C)C(=O)[C@@H](NC(=O)CCN)C(C)(C)SSC(C)(C)[C@@H](C(=O)N[C@@H](Cc2c[nH]c3ccccc23)C(=O)N[C@@H](CCC(=O)O)C(N)=O)NC1=O` [compound 52] (H-[βAla][Pen][NMeR]SDTL[Pen]WE-NH2; disulfide 2-8), the half-inhibitory concentration (IC50) was 10 to 25 nM at rh integrin α4β7 and 100 to 500 nM on α4β7. In data set [1] (setting [3]), the half-life at 22 μM is 1.95 h.
In the case of `CC(C)C[C@@H]1NC(=O)[C@H]([C@@H](C)O)NC(=O)[C@H](CC(=O)O)NC(=O)[C@H](CO)NC(=O)[C@H](CCCNC(=N)N)N(C)C(=O)[C@@H](NC(=O)CCN)C(C)(C)SSC(C)(C)[C@@H](C(=O)N[C@@H](Cc2c[nH]c3ccccc23)C(=O)N[C@H](CCC(=O)O)C(N)=O)NC1=O` [compound 53] (H-[βAla][Pen][NMeR]SDTL[Pen]W[dE]-NH2; disulfide 2-8), the IC50 on rh integrin α4β7 was in the range of 10 to 25 nM. The half-life at 22 μM in data set [1] (setting [3]) was more than 3 h.
Turning to `CC(C)C[C@@H]1NC(=O)[C@H]([C@@H](C)O)NC(=O)[C@H](CC(=O)O)NC(=O)[C@H](CO)NC(=O)[C@H](CCCNC(=N)N)N(C)C(=O)[C@@H](NC(=O)CCNC(=O)COCC(=O)NCCC(=O)N[C@@H]2C(=O)N(C)[C@@H](CCCNC(=N)N)C(=O)N[C@@H](CO)C(=O)N[C@@H](CC(=O)O)C(=O)N[C@@H]([C@@H](C)O)C(=O)N[C@@H](CC(C)C)C(=O)N[C@H](C(=O)N[C@@H](Cc3c[nH]c4ccccc34)C(=O)N[C@@H](CCC(=O)O)C(N)=O)C(C)(C)SSC2(C)C)C(C)(C)SSC(C)(C)[C@@H](C(=O)N[C@@H](Cc2c[nH]c3ccccc23)C(=O)N[C@@H](CCC(=O)O)C(N)=O)NC1=O` [compound 54] (I: [Pen][NMeR]SDTL[Pen]WE-NH2 / II: [Pen][NMeR]SDTL[Pen]WE-NH2; disulfide I:1-I:7, II:1-II:7; linker I:N-II:N via X3), the 50% inhibitory concentration (IC50) on α4β1 lay in the range of 100 to 500 nM; at α4β7, 25 to 50 nM. The half-life at 22 μM in data set [1] (setting [3]) was 0.533 h.
Regarding `CC(=O)N[C@@H]1C(=O)N(C)[C@@H](CCCNC(=N)N)C(=O)N[C@@H](CO)C(=O)N[C@@H](CC(=O)O)C(=O)N[C@@H]([C@@H](C)O)C(=O)N[C@@H](CC(C)C)C(=O)N[C@H](C(=O)N[C@@H](Cc2ccc(C(C)(C)C)cc2)C(=O)O)C(C)(C)SSC1(C)C` [compound 151] (Ac-[Pen][NMeR]SDTL[Pen][Phe(4-tBu)]-OH; disulfide 1-7), the half-inhibitory concentration (IC50) is 10 to 25 nM at rh integrin α4β7 and 50 to 100 nM on α4β7. Further, in data set [1] (setting [2]), the half-life at 22 μM is 3.12 h.
